Laboratory results reported in US11066414B2, “Cot modulators and methods of use thereof” (Gilead Sciences, Inc., priority 2015, dated 2021).
Like-named read-outs stand apart in the source and are kept apart here.

Biological target: Human Cot (Homo sapiens (Human), UniProt P41279)
Assay: High Throughput Cot Biochemical Assay
Settings: Cot HTRF (TR-FRET) biochemical assay

Chain of Human Cot (P41279 30-397): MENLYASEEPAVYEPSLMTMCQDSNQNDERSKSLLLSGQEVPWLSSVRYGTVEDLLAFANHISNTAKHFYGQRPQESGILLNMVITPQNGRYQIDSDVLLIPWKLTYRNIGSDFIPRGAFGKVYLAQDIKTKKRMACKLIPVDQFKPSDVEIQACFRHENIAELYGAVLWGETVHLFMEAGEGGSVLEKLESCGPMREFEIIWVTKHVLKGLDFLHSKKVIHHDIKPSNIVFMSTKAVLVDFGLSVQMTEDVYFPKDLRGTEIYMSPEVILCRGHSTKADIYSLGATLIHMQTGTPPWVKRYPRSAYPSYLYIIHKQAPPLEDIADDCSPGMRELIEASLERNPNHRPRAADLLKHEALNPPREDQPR

SMILES	IC50 (read-out: IC50 HTRF) [nM]	IC50 (IC50 HTRF) [nM]
Cn1cc(C(Nc2cc(Cl)c3ncc(C#N)c(Nc4ccc(F)c(Cl)c4)c3c2)c2cn(C3CCN(C(C)(C)C)CC3)nn2)nn1 (stereo not shown) [Example 399, 6-(((1-(1-(tert-butyl)piperidin-4-yl)-1H-1,2,3-triazol-4-yl)(1-methyl-1H-l, 2,3-triazol-4-yl)methyl)amino)-8-chloro-4-((3-chloro-4-fluorophenyl)-amino)quinoline-3-carbonitrile]	58	
N#Cc1cnc2c(Cl)cc(NC(c3cccnc3)c3cn([C@@H]4CCN(C(=O)OCc5ccccc5)C4)nn3)cc2c1Nc1ccc(F)c(Cl)c1 (stereo partly drawn) [Example 400, benzyl (3R)-3-(4-(((8-chloro-4-((3-chloro-4-fluorophenyl)amino)-3-cyanoquinolin-6-yl)amino)(pyridin-3-yl)methyl)-1H-1,2,3-triazol-1-yl)pyrrolidine-1-carboxylate]		119
N#Cc1cnc2c(Cl)cc(NC(c3cccnc3)c3cn([C@@H]4CCNC4)nn3)cc2c1Nc1ccc(F)c(Cl)c1 (stereo partly drawn) [Example 401, 8-chloro-4-((3-chloro-4-fluoro-phenyl)amino)-6-((pyridin-3-yl(1-((R)-pyrrolidin-3-yl)-1H-1,2,3-triazol-4-yl)methyl)amino)quinoline-3-carbonitrile]		10
CCN1CC[C@@H](n2cc(C(Nc3cc(Cl)c4ncc(C#N)c(Nc5ccc(F)c(Cl)c5)c4c3)c3cccnc3)nn2)C1 (stereo partly drawn) [Example 402, 8-chloro-4-((3-chloro-4-fluoro-phenyl)amino)-6-(((1-((R)-1-ethylpyrrolidin-3-yl)-1H-1,2,3-triazol-4-yl)(pyridin-3-yl)methyl)-amino)quinoline-3-carbonitrile]		19
N#Cc1cnc2c(Cl)cc(NC(c3cccnc3)c3cn(C4CCN(C(=O)OCc5ccccc5)CC4)nn3)cc2c1Nc1ccc(F)c(Cl)c1 (stereo not shown) [Example 404, benzyl 4-(4-(((8-chloro-4-((3-chloro-4-fluorophenyl)amino)-3-cyanoquinolin-6-yl)amino)(pyridin-3-yl)methyl)-1H-1,2,3-triazol-1-yl)piperidine-1-carboxylate]		232
Cn1ncc2c([C@H](Nc3cc(Cl)c4ncc(C#N)c(NCC(C)(C)C)c4c3)c3cn(C4CC4)nn3)cccc21 [Example 423, (S)-8-chloro-6-(((1-cyclopropyl-1H-1,2,3-triazol-4-yl)(1-methyl-1H-indazol-4-yl)methyl)amino)-4-(neopentylamino)-quinoline-3-carbonitrile]		3
CC(C)(C)CNc1c(C#N)cnc2c(C#N)cc(N[C@H](c3cn(C4(C(F)(F)F)CC4)nn3)c3csc4c3CCN(C3COC3)C4)cc12 [Example 429, (S)-4-(neopentylamino)-6-(((6-(oxetan-3-yl)-4,5,6,7-tetrahydrothieno[2,3-c]pyridin-3-yl)(1-(1-(trifluoromethyl)cyclopropyl)-1H-1,2,3-triazol-4-yl)methyl)amino)-quinoline-3,8-dicarbonitrile]		2
CC(C)(C)CNc1c(C#N)cnc2c(Cl)cc(N[C@H](c3cn(C4(C)CC4)nn3)c3cccc4ncsc34)cc12 [Example 434, (S)-6-((benzo[d]thiazol-7-yl(1-(1-methylcyclopropyl)-1H-1,2,3-triazol-4-yl)methyl)amino)-8-chloro-4-(neopentylamino)quinoline-3-carbonitrile]		2
CC(C)(C)CNc1c(C#N)cnc2c(Cl)cc(N[C@H](c3cn(C4(CO)CC4)nn3)c3cccc4ncsc34)cc12 [Example 458, (S)-6-((benzo[d]thiazol-7-yl(1-(1-(hydroxymethyl)cyclopropyl)-1H-1,2,3-triazol-4-yl)methyl)amino)-8-chloro-4-(neopentylamino)quinoline-3-carbonitrile]		4
CC(C)(C)CNc1c(C#N)cnc2c(C#N)cc(N[C@H](c3cn(C4CC4)nn3)c3cccc4ncccc34)cc12 [Example 467, (S)-6-(((1-cyclopropyl-1H-1,2,3-triazol-4-yl)(quinolin-5-yl)methyl)amino)-4-(neopentylamino)quinoline-3,8-dicarbonitrile]		2
Cc1nc(F)ccc1[C@H](Nc1cc(Cl)c2ncc(C#N)c(NCC(C)(C)C)c2c1)c1cn(C2(C#N)CC2)nn1 [Example 476, (S)-8-chloro-6-(((1-(1-cyanocyclopropyl)-1H-1,2,3-triazol-4-yl)(6-fluoro-2-methylpyridin-3-yl)methyl)amino)-4-(neopentylamino)-quinoline-3-carbonitrile]		3
Cc1nc(F)ccc1[C@H](Nc1cc(Cl)c2ncc(C#N)c(NCC(C)(C)C)c2c1)c1cn(C2(C(N)=O)CCC2)nn1 [Example 478, (S)-1-(4-(((8-chloro-3-cyano-4-(neopentylamino)quinolin-6-yl)amino)(6-fluoro-2-methylpyridin-3-yl)methyl)-1H-1,2,3-triazol-1-yl)cyclobutane-1-carboxamide]		1
Cc1nc(F)ccc1[C@H](Nc1cc(Cl)c2ncc(C#N)c(NCC(C)(C)C)c2c1)c1cn(C(F)(F)CO)nn1 [Example 584, (S)-8-chloro-6-(((1-(i, 1-difluoro-2-hydroxyethyl)-1H-1,2,3-triazol-4-yl)(6-fluoro-2-methylpyridin-3-yl)methyl)amino)-4-(neopentylamino)quinoline-3-carbonitrile]	2	

Now from value to compound:

IC50 (read-out: IC50 HTRF) [nM]	IC50 (IC50 HTRF) [nM]	SMILES
	2	CC(C)(C)CNc1c(C#N)cnc2c(C#N)cc(N[C@H](c3cn(C4(C(F)F)CC4)nn3)c3cccc4ncsc34)cc12 [Example 424, (S)-6-((benzo[d]thiazol-7-yl(1-(1-(difluoromethyl)cyclopropyl)-1H-1,2,3-triazol-4-yl)methyl)amino)-4-(neopentylamino)quinoline-3,8-dicarbonitrile]
	2	CC(C)(C)CNc1c(C#N)cnc2c(Cl)cc(N[C@H](c3cn(C4(C(F)F)CC4)nn3)c3cccc4c3CNC4)cc12 [Example 445, (S)-8-chloro-6-(((1-(1-(difluoromethyl)-cyclopropyl)-1H-1,2,3-triazol-4-yl)(isoindolin-4-yl)methyl)amino)-4-(neopentylamino)quinoline-3-carbonitrile]
	3	Cn1cnc2cccc([C@H](Nc3cc(Cl)c4ncc(C#N)c(NCC(C)(C)C)c4c3)c3cn(C4(C(F)F)CC4)nn3)c21 [Example 499, (S)-8-chloro-6-(((1-(1-(difluoromethyl)-cyclopropyl)-1H-1,2,3-triazol-4-yl)(1-methyl-1H-benzo[d]imidazol-7-yl)methyl)amino)-4-(neopentylamino)-quinoline-3-carbonitrile]
	4	Cc1nc(F)ccc1[C@H](Nc1cc(F)c2ncc(C#N)c(NCC(C)(C)C)c2c1)c1cn(C2(C(F)F)CC2)nn1 [Example 514, (S)-6-(((1-(1-(difluoromethyl)cyclopropyl)-1H-1,2,3-triazol-4-yl)(6-fluoro-2-methylpyridin-3-yl)methyl)amino)-8-fluoro-4-(neopentylamino)quinoline-3-carbonitrile]
	2	CC(C)(C)CNc1c(C#N)cnc2c(C#N)cc(N[C@H](c3cn(C4(C(F)(F)F)CC4)nn3)c3cccc4ccncc34)cc12 [Example 535, (S)-6-((isoquinolin-8-yl(1-(1-(trifluoro-methyl)cyclopropyl)-1H-1,2,3-triazol-4-yl)methyl)amino)-4-(neopentylamino)-quinoline-3,8-dicarbonitrile]
2		Cc1n[nH]c2cccc([C@H](Nc3cc(C#N)c4ncc(C#N)c(NCC(C)(C)C)c4c3)c3cn(C4(C(F)F)CC4)nn3)c12 [Example 571]
